Assay results as given in US20260191974A1, “B7-H3 TARGETING LIGANDS AND METHODS OF USE” (The University of North Carolina at Chapel Hill, priority 2022, published 2026).
“And” between values parts separate entries of the source, which are not always exact repeats. Identical values can stand only once. *1 amine or outer side, *2 acyl side, *3 side chain or, on linkers, in order; H or OH if unused. Where a SMILES comes first, the peptide text is derived from it. Bridges are numbered along the chain shown (N, C = ends). Where no end group is shown, it is not given here. [ ]: non-standard residue; d: D form. ξ: configuration not given here. mXylylene = c1cc(C[*:1])cc(C[*:2])c1; Nle = CCCC[C@H](N)C(=O)O; ξP = O=C(O)C1CCCN1

Legend:
B7-H3 [1] = molecular target: T1, B7-H3 (Homo sapiens, UniProt Q5ZPR3); test: mRNA display validation assay of NGS hits against B7-H3; type: binding; conditions: naïve NNK10 library as a control
T1 sequence (Q5ZPR3 29-534): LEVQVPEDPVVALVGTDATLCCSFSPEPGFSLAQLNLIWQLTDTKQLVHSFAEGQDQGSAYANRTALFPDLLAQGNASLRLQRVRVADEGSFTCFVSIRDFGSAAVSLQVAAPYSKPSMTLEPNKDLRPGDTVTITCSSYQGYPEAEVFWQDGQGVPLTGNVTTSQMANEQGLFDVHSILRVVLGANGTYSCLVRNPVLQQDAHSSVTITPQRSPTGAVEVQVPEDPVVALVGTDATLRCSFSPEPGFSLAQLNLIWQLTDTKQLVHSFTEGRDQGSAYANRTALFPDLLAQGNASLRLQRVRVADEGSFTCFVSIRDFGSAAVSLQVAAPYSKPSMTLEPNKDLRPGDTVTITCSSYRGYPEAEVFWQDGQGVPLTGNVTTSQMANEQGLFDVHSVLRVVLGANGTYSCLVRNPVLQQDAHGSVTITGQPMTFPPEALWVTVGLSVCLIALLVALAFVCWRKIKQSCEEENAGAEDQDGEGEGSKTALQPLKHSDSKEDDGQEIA
From the text: FIGS. 11A-11F. Dibromoxylene (DBX) mediated B7-H3 selection. (FIG. 11A) Selection schematic details the selection process for identifying binders against B7-H3 using DBX. (FIG. 11B) qPCR results of the DBX mediated B7-H3 selection. (FIG. 11C) Mean frequency vs. number of sequences. (FIG. 11D) NGS data of the selection hits from Selections (rounds 3 and 5), named sequences indicate sequences purchased for binding validation. (FIG. 11E) Validation assay identified hits from NGS data run through the selection process (outlined in (FIG. 11A)), with the naïve NNK10 library as a control.
A background screen against selection components is carried out prior to the selection against B7-H3 to remove non-specific binders. FIG. 11D includes sequences from NGS data with named sequences evaluated for binding validation. […] Exemplary DBX hit structures are shown in FIG. 12, with points of cargo attachment designated with arrows.

[2] = system: Raji cells expressing murine B7-H3; test: Live imaging with GFP-tagged endosome/lysosome reporters in Raji cells expressing murine B7-H3; type: cell-based; conditions: JP3-PEG-TAMRA or JP5-PEG-TAMRA at 250 nM for 5 hours
Protocol: FIGS. 22A-22B. Live imaging of an example targeting ligand uptake in Raji cells expressing murine B7-H3 pre-incubated with GFP-tagged reporters for early (Rab5a) and late (Rab7a) endosomes or early (Lamp1) lysosomes. Cells were treated with JP3-PEG-TAMRA (FIG. 22A) or JP5-PEG-TAMRA (FIG. 22B) at 250 nM for 5 hours, cytospun with live cell imaging subsequently performed.
Live imaging of an example targeting ligand uptake in Raji cells expressing murine B7-H3 pre-incubated with GFP-tagged reporters for early (Rab5a) and late (Rab7a) endosomes or early (Lamp1) lysosomes is shown in FIG. 22A (JP3) and FIG. 22B (JP5).

[3] = Serum stability in 50% fetal bovine serum; type: in vitro ADME; conditions: 37° C., read-out: peptide remaining intact
Protocol: Serum stability of JP3 and JP5 was assessed. Peptides (JP3 or JP5) were incubated in 50% fetal bovine serum (diluted in media) at 37° C. and samples were taken over a time course spanning 24 h. Samples were mixed with cold methanol to crash out serum protein, and the supernatant containing the peptides was collected and run on MS to determine the amount of peptide present at each time point.

human and murine B7-H3 [4] = test: Ka (M^-1s^-1)
Protocol: (§1) Table printed on a drawing sheet, FIG. 24C
Head of the field: Ka (M^-1s^-1)
(§2) The patent's description of the figure: FIGS. 24A-24C. SPR analysis of the selected peptides B1.1 and JP5. The B1.1 variant was analyzed at analyte concentrations of 7.5, 15, 30, 60, and 120 nM (FIG. 24A) and the JP5 variant was analyzed at analyte concentrations of 22.2, 66.6, 200, 600 and 1800 nM (FIG. 24B). (FIG. 24C) Binding kinetics of each peptide.
(§3) First copying reader's note: Bracket lines drawn over and under the sequences mark ring closures that the text cells cannot show: C-C above and Q-K below in oxidized B1.1, Q-K below only in reduced B1.1, and C-C above in JP5.
(§4) Where the first naming reader finds the target: passage: Surface plasmon resonance was used to evaluate binding of B1.1 and JP5 to both human and murine B7-H3 (FIGS. 24A-24C)

human and murine B7-H3 [5] = test: KD (nM)
Protocol: as §1
Head of the field: KD (nM)
as §2, §3, §4

biotinylated B7-H3 = molecular target: T2, biotinylated B7-H3 (Homo sapiens, UniProt Q5ZPR3); test: Surface Plasmon Resonance (SPR) analysis against biotinylated B7-H3; conditions: biotinylated B7-H3, 25° C., 1:1 binding kinetics model
T2 sequence (Q5ZPR3 29-534): T1 sequence (Q5ZPR3 29-534)
From the text: (§5) FIGS. 4A-4G. (FIG. 4A) Selection schematic detailing the selection process for identifying binders against B7-H3. (FIG. 4B) qPCR results of the mTG mediated B7-H3 selection. (FIG. 4C) B7-H3 selection results and complete NGS analysis of B7-H3 hits. (FIG. 4D) NGS data of the selection hits. […] Arrow indicates the peptide pursued for binding validation. (FIG. 4E) EIC ([M+2], 948.91 m/z) traces corresponding to the product of the mTG reaction with linear B1.1 peptide and the synthetic lactam, disulfide peptide. (FIG. 4F) Surface Plasmon Resonance (SPR) analysis of the selected peptide (B1.1), the Met9Nle variant, and the linear variant. […] The selected B1.1 and the Met9Nle variant were analyzed at analyte concentrations of 7.5, 15, 30, 60, 120 nM. The linear variant was analyzed at analyte concentrations of 50, 100, 200, 400, 800 nM. […] (FIG. 4G) Individual SPR curves. Fitted curve and raw data are shown.
Surface Plasmon Resonance (SPR) analysis. Binding kinetics between our selected peptide (and variants) and biotinylated B7-H3 (B7-H3b) were assessed through SPR analysis using a BIACORE 8K SPR system (GE Healthcare). The running buffer was 1×PBS pH7.5, 0.05% TWEEN® 20 and all analysis was carried out at 25° C. B7-H3b was loaded onto a NeutrAvidin SPR Chip (Series S Sensor Chip NA, 29407997, Cytiva) at a flow rate of […] to a surface density of 1000-1500 response units. Analyte was then injected over a series of five concentrations and quantified by BIACORE single-cycle kinetics method. For our selected peptide (B1.1) and the Met9Nle variant a range of 7.5, 15, 30, 60, 120 nM were run. For the linear variant concentrations of 50, 100, 200, 400, 800 nM were run. Binding sonograms were generated using a standard 1:1 binding kinetics model and kinetics constants determined using standard BIACORE evaluation software.

B7-H3 [6] = test: kd (s^-1)
From the text: (§6) Table printed on a drawing sheet, FIG. 4F
Head of the field: kd (s^-1)
as §5, with “The patent's description of the figure: FIGS.” for “FIGS.”
(§7) First copying reader's note: Brackets drawn on the SELECTED and MET9NLE sequences join C to C (above) and Q to K (below), marking a bicyclic peptide; LINEAR has no brackets.
(§8) Where the first naming reader finds the target: passage: Binding affinities were assessed for each peptide by surface plasmon resonance (SPR) against biotinylated B7-H3.

B7-H3 [7] = test: ka (M^-1s^-1)
From the text: as §6
Head of the field: ka (M^-1s^-1)
as §5, with “The patent's description of the figure: FIGS.” for “FIGS.”
as §7, §8

CC[C@H](C)[C@@H]1NC(=O)[C@H](CC(=O)O)NC(=O)[C@H](CCCNC(=N)N)NC(=O)[C@H]([C@@H](C)CC)NC(=O)[C@H]([C@@H](C)O)NC(=O)[C@H](Cc2c[nH]c3ccccc23)NC(=O)[C@@H](NC(C)=O)CSCc2cccc(c2)CSC[C@@H](C(=O)NCC(=O)O)NC(=O)[C@H](CCCNC(=N)N)NC(=O)[C@H]([C@@H](C)O)NC(=O)CNC(=O)[C@H](CC(N)=O)NC1=O [JP5, N-terminal acetylated CWTIRDINGTRCG] (Ac-CWTIRDINGTRCG-OH; linker 1-12 via mXylylene; N-terminus and C-terminus assumed)
binding in validation assay (B7-H3 [1]): strong B7-H3 binders | subcellular localization (Rab5a, Rab7a, Lamp1 reporters) [2]: predominantly cell surface localization of JP5 was observed with some rare evidence of endosomal uptake | remaining at 24 h [3]: 80% | Ka (M^-1s^-1) (human and murine B7-H3 [4]): 1.25e^5 and 1.02e^5

acWALQLCHSNleFYTCKSGK(AZO)G [OXIDIZED B1.1 | 296]
Kd (human and murine B7-H3 [5]): 161 nM

linear variant of B1.1: linear form of B1.1 without lactam and disulfide cyclization (WALQLCHSMFYTCKSG-NH2; cysteine pairing not given here)
binding affinity towards B7-H3 (biotinylated B7-H3): no detectable binding interaction | binding affinity towards B7-H3 (biotinylated B7-H3; listed as linear precursor peptide): did not bind

CCCC[C@@H]1NC(=O)[C@H](CO)NC(=O)[C@H](Cc2c[nH]cn2)NC(=O)[C@@H]2CSSC[C@H](NC(=O)[C@H]([C@@H](C)O)NC(=O)[C@H](Cc3ccc(O)cc3)NC(=O)[C@H](Cc3ccccc3)NC1=O)C(=O)N[C@H](C(=O)N[C@@H](CO)C(=O)NCC(N)=O)CCCCNC(=O)CC[C@H](NC(=O)[C@H](CC(C)C)NC(=O)[C@H](C)NC(=O)[C@H](Cc1c[nH]c3ccccc13)NC(C)=O)C(=O)N[C@@H](CC(C)C)C(=O)N2 [Met9Nle variant, acWALQLCHSNleFYTCKSG] (Ac-WALELCHS[Nle]FYTCKSG-NH2; lactam 4-14; disulfide 6-13)
binding affinity towards B7-H3 (biotinylated B7-H3): similar | Kd (biotinylated B7-H3; read-out: binding affinity towards B7-H3): 46.9 nM | kd (s^-1) (B7-H3 [6]): 4.48e^-2 | ka (M^-1s^-1) (B7-H3 [7]): 9.55e^5

CC[C@H](C)[C@@H]1NC(=O)[C@@H](NC(C)=O)CSCc2cccc(c2)CSC[C@@H](C(=O)NCC(=O)O)NC(=O)[C@@H]2CCCN2C(=O)[C@H](CC(C)C)NC(=O)[C@H](Cc2ccccc2)NC(=O)[C@H](CCCNC(=N)N)NC(=O)C2CCCN2C(=O)[C@H]([C@@H](C)CC)NC(=O)[C@H](CCCNC(=N)N)NC(=O)[C@H]([C@@H](C)O)NC(=O)[C@H](Cc2c[nH]c3ccccc23)NC(=O)[C@H](C(C)C)NC1=O (stereo partly drawn) [JP3, N-terminal acetylated CIVWTRIPRFLPCG] (Ac-CIVWTRI[ξP]RFLPCG-OH; linker 1-13 via mXylylene)
binding in validation assay (B7-H3 [1]): strong B7-H3 binders | subcellular localization (Rab5a, Rab7a, Lamp1 reporters) [2]: Co-localization of JP3 and Rab5a | remaining at 24 h [3]: ~40%

acWALQLCHSNleFYTCKSGK(AZO)G [REDUCED B1.1 | 294]
Ka (M^-1s^-1) (human and murine B7-H3 [4]): 7.444e^7
